In article doi:10.1101/2025.03.27.645620v1 (biorxiv, 2025):
Read-outs that look alike come from different tables or passages of the source.

Key:
WT-hSTING-CTT = WT-hSTING-CTT (Homo sapiens, UniProt Q86WV6, H232R); assay: surface plasmon resonance; assay type: binding; conditions: labelled compound; biotin-tagged SB […] used
human PBMCs = assay: cells; conditions: PBMC, 24 h
murine splenocytes = assay: cells; set-up: species or system mouse splenocytes; conditions: Mus musculus, Splenocyte, 24 h
hSTING-WT = assay: cells; set-up: species or system THP1; conditions: Homo sapiens, THP-1, 20 h, read-out: SB 11285 EC50 (µM)
mSTING = assay: cells; set-up: species or system THP1; conditions: Homo sapiens, THP-1, 20 h, read-out: SB 11285 EC50 (µM)
hSTING AQ = assay: cells; set-up: species or system THP1; conditions: Homo sapiens, THP-1, 20 h, read-out: SB 11285 EC50 (µM)

Sequence of WT-hSTING-CTT (Q86WV6 139-379 H232R): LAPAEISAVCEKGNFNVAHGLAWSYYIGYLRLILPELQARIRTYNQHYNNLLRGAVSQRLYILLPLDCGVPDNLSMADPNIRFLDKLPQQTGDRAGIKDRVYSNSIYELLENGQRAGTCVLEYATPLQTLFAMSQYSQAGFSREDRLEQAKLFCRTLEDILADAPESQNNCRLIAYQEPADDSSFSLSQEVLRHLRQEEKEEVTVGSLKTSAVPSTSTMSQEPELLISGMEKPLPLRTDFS

biotin-tagged SB 11285
Kd (WT-hSTING-CTT): ~0.122 µM

Nc1ncnc2c1ncn2[C@@H]1O[C@@H]2COP(O)(=S)O[C@@H]3[C@H](O)[C@@H](COP(O)(=S)O[C@H]2[C@H]1O)O[C@H]3n1cnc2c(N)ncnc21 (stereo partly shown) [ADU-S100]
EC50 (human PBMCs; read-out: EC50(μM), GM-CSF): 2.9 ± 0.4 µM | EC50 (human PBMCs; read-out: EC50(μM), IFN-α): 2.6 ± 2.9 µM | EC50 (human PBMCs; read-out: EC50(μM), IFN-β): > 10 µM | EC50 (human PBMCs; read-out: EC50(μM), IL-6): 2.3 ± 0.6 µM | EC50 (human PBMCs; read-out: EC50(μM), IL-10): 0.8 ± 0.6 µM | EC50 (human PBMCs; read-out: EC50(μM), IP-10): 0.4 ± 0.3 µM | EC50 (human PBMCs; read-out: EC50(μM), MIP-1α): 1.1 ± 0.6 µM | EC50 (human PBMCs; read-out: EC50(μM), MIP-1β): 1.2 ± 0.8 µM | EC50 (human PBMCs; read-out: EC50(μM), RANTES): 0.7 ± 0.5 µM | EC50 (murine splenocytes; read-out: EC50 (μM), CXCL1): 1.6 ± 0.9 µM | EC50 (murine splenocytes; read-out: EC50 (μM), IFN-α): > 10 µM | EC50 (murine splenocytes; read-out: EC50 (μM), IL-6): 1.7 ± 1.7 µM | EC50 (murine splenocytes; read-out: EC50 (μM), IL-17A): 0.3 ± 0.2 µM | EC50 (murine splenocytes; read-out: EC50 (μM), IL-18): 0.6 ± 0.4 µM | EC50 (murine splenocytes; read-out: EC50 (μM), MIP-1α): 0.5 ± 0.4 µM | EC50 (murine splenocytes; read-out: EC50 (μM), MIP-1β): 0.7 ± 0.3 µM | EC50 (murine splenocytes; read-out: EC50 (μM), RANTES): 0.1 ± 0.1 µM | EC50 (murine splenocytes; read-out: EC50 (μM), TNF-α): 1.4 ± 0.5 µM

NC1CC2CCC(C1)C2O (mixture of isomers) [SB 11285]
EC50 (human PBMCs; read-out: SB 11285 EC50(μM), GM-CSF): 0.4 ± 0.3 µM | EC50 (human PBMCs; read-out: SB 11285 EC50(μM), IFN-α): 0.9 ± 0.7 µM | EC50 (human PBMCs; read-out: SB 11285 EC50(μM), IFN-β): 0.3 ± 0.2 µM | EC50 (human PBMCs; read-out: SB 11285 EC50(μM), IFN-γ): 1 ± 0.4 µM | EC50 (human PBMCs; read-out: SB 11285 EC50(μM), IL-10): 0.03 ± 0.03 µM | EC50 (human PBMCs; read-out: SB 11285 EC50(μM), IL-12p70): 0.8 ± 0.3 µM | EC50 (human PBMCs; read-out: SB 11285 EC50(μM), IL-18): 0.7 ± 0.1 µM | EC50 (human PBMCs; read-out: SB 11285 EC50(μM), MIP-1α): 0.05 ± 0.04 µM | EC50 (human PBMCs; read-out: SB 11285 EC50(μM), MIP-1β): 0.06 ± 0.09 µM | EC50 (human PBMCs; read-out: SB 11285 EC50(μM), RANTES): 0.08 ± 0.06 µM | EC50 (murine splenocytes; read-out: SB 11285 EC50 (μM), IFN-α): 0.2 ± 0.1 µM | EC50 (murine splenocytes; read-out: SB 11285 EC50 (μM), IL-18): 0.02 ± 0.02 µM | EC50 (murine splenocytes; read-out: SB 11285 EC50 (μM), IL-31): 0.006 ± 0.003 µM | EC50 (murine splenocytes; read-out: SB 11285 EC50 (μM), IP-10): 0.03 ± 0.02 µM | EC50 (murine splenocytes; read-out: SB 11285 EC50 (μM), TNF-α): 0.04 ± 0.06 µM | EC50 (hSTING-WT): 0.008 µM | EC50 (mSTING): 0.15 µM | EC50 (hSTING AQ): 0.43 µM
